Measurements as given in patent US20110118238A1, “2-ANILINOPURIN-8-ONES AS INHIBITORS OF TTK/MPS1 FOR THE TREATMENT OF PROLIFERATIVE DISORDERS” (ASTRAZENECA AB, priority 2007, published 2011).

Key:
[1] = target: T1, N-terminal GST tagged full length human TTK kinase (Homo sapiens, UniProt P33981); assay: In Vitro TTK Kinase Assay 2 (Caliper LabChip LC3000); format: biochemical; conditions: recombinant TTK, 12 μM ATP, read-out: EAA2: Enzyme Assay Activity (In Vitro TTK kinase assay 2)
T1 construct: N-terminal GST tagged full length human TTK kinase; GST (N); made in house; host or cells: insect cells
T1 sequence (P33981 1-857): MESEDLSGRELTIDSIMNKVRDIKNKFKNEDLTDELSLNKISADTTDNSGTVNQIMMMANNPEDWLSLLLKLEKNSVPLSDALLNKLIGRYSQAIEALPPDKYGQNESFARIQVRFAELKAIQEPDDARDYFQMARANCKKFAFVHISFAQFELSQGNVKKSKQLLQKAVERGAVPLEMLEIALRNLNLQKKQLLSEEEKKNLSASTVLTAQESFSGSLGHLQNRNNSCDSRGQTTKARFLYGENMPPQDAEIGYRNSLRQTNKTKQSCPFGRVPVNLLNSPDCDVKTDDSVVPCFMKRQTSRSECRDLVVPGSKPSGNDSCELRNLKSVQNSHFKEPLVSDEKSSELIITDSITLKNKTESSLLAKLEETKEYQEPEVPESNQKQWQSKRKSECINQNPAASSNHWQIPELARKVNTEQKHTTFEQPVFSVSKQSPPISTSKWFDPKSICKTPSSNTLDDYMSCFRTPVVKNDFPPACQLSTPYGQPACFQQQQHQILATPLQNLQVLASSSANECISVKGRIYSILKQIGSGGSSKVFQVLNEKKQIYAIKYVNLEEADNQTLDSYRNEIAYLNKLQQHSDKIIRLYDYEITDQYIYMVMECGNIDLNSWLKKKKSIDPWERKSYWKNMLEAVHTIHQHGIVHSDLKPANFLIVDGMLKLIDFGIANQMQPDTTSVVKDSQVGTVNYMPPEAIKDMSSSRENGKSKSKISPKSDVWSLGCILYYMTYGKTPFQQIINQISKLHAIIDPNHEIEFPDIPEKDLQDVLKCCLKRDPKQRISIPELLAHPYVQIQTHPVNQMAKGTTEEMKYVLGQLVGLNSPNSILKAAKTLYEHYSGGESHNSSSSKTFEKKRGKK
Protocol: Each reaction was stopped by the addition of EDTA to a concentration of 40 mM in a solution which also comprised 0.1% coating reagent (Caliper LS), 100 mM HEPES pH 7.5, 0.015% v/v Brij™-35 and 5% DMSO. The stopped enzyme reactions were sipped through capillaries onto a Caliper chip where the peptide substrate and phosphorylated product were separated and detected via laser-induced fluorescence.

[2] = tested on: human colon tumour cell line HT29; assay: Spindle Checkpoint Abrogation Assay (phosphohistone H3 serine 10); format: cell-based; conditions: HT-29, HT29 cells, paclitaxol 7.8 nM, compound 5 h, histone H3 serine 10 positive cells, read-out: SCAA: Spindle checkpoint abrogation assay activity
Text: Chromosome condensation in mitosis is accompanied by phosphorylation of histone H3 on serine 10. Dephosphorylation begins in anaphase and ends at early telophase, thus histone H3 serine 10 phosphorylation acts as an excellent mitotic marker. Paclitaxol is a microtubule stabilising drug which perturbs microtubule dynamics, invokes the spindle checkpoint and arrests cells in mitosis. These cells are positive for histone H3 serine 10 phosphorylation. Inhibition of the spindle checkpoint overrides the mitotic block in the presence of paclitaxol and the histone H3 serine 10 endpoint is used as a marker to determine the ability of compounds of the present invention to exit mitotic arrest prematurely.
Cells of the human colon tumour cell line HT29 were seeded into 96 well black plates (Costar, Catalogue No 3904) in phenol red free Dulbecco's Modified Eagles Medium (DMEM) supplemented with 10% (v/v) FCS and 1% (v/v) L-Glutamine and incubated overnight at 37° C. Paclitaxol was added to the cells at a concentration of 7.8 nM and the cells incubated overnight prior to compound dosing. Test compounds were solubilised in DMSO, diluted to give a range of final assay concentrations, added to cells and incubated for 5 h at 37° C. […] The raw assay data were analysed by non-linear regression analysis and used to determine an IC50 value for each compound.

[3] = target: T1, N-terminal GST tagged full length human TTK kinase; assay: In Vitro TTK Kinase Assay 1 (AlphaScreen); format: biochemical; conditions: recombinant TTK, 10 μM ATP, read-out: EAA: Enzyme Assay Activity (In Vitro TTK kinase assay 1)
Protocol: Aliquots (2 μL) of each compound dilution were placed into wells of a Greiner 384-well low volume white polystyrene plate (Greiner Bio-one).
The resultant signals arising from laser light excitation at 680 nm were read using a Packard Envision instrument.

Structure (SMILES) | IC50 [1] [nM] | IC50 [2] [nM] | IC50 [3] [nM]
Cn1c(=O)n(C2CCCC2)c2nc(Nc3ccc(S(C)(=O)=O)cc3F)ncc21 [Example 3, 9-Cyclopentyl-2-{[2-fluoro-4-(methylsulfonyl)phenyl]amino}-7-methyl-7,9-dihydro-8H-purin-8-one] | 131 | 2300 | 
CN1CCN(S(=O)(=O)c2ccc(Nc3ncc4c(n3)n(C3CCCC3)c(=O)n4C)cc2)CC1 [Example 13, 9-Cyclopentyl-7-methyl-2-({4-[(4-methylpiperazin-1-yl)-sulfonyl]-phenyl}amino)-7,9-dihydro-8H-purin-8-one] | 626 | 3700 | 
COc1cc(OC2CCN(C)C2)ccc1Nc1ncc2c(n1)n(C1CCCC1)c(=O)n2C (stereo not shown) [Example 24, 9-Cyclopentyl-2-({2-methoxy-4-[(1-methylpyrrolidin-3-yl)-oxy]-phenyl}amino)-7-methyl-7,9-dihydro-8H-purin-8-one] | 17.3 |  | 151
CCOc1cc(N2CCC(N(C)C)CC2)ccc1Nc1ncc2c(n1)n(C1CCCC1)c(=O)n2C [Example 23, 9-Cyclopentyl-2-({4-[4-(dimethylamino)piperidin-1-yl]-2-ethoxyphenyl}amino)-7-methyl-7,9-dihydro-8H-purin-8-one] | 75.6 |  | 703
COc1cc(C(=O)NC2CC3CCCC(C2)N3C)ccc1Nc1ncc2c(n1)n(C1CCCC1)c(=O)n2C (stereo not shown) [Example 14, 4-[(9-Cyclopentyl-7-methyl-8-oxo-8,9-dihydro-7H-purin-2-yl)-amino]-3-methoxy-N-(9-methyl-9-azabicyclo[3.3.1]non-3-yl)benzamide] | 69.7 |  | 1560
COc1cc(C(=O)NC2CCN(C)CC2)ccc1Nc1ncc2c(n1)n(C1CCCC1)c(=O)n2C [Example 1] | 64.6 |  | 622
COc1cc(CCN2CCN(C)CC2)ccc1Nc1ncc2c(n1)n(C1CCCC1)c(=O)n2C [Example 27, 9-Cyclopentyl-2-({2-methoxy-4-[2-(4-methylpiperazin-1-yl)-ethyl]phenyl}amino)-7-methyl-7,9-dihydro-8H-purin-8-one] | 24.1 |  | 288
COc1cc(N2CCOCC2)ccc1Nc1ncc2c(n1)n(C1CCCC1)c(=O)n2C [Example 6, 9-Cyclopentyl-2-[(2-methoxy-4-morpholin-4-ylphenyl)-amino]-7-methyl-7,9-dihydro-8H-purin-8-one] | 78 |  | 396
CCn1c(=O)n(C2CCCC2)c2nc(Nc3ccc(C(=O)NC)cc3OC)ncc21 [Example 31, 4-[(9-Cyclopentyl-7-ethyl-8-oxo-8,9-dihydro-7H-purin-2-yl)-amino]-3-methoxy-N-methylbenzamide] | 16.4 |  | 371
CCOc1cc(N2CCCN(C)CC2)ccc1Nc1ncc2c(n1)n(C1CCCC1)c(=O)n2C [Example 21, 9-Cyclopentyl-2-{[2-ethoxy-4-(4-methyl-1,4-diazepan-1-yl)-phenyl]amino}-7-methyl-7,9-dihydro-8H-purin-8-one] | 47.3 |  | 384
COc1cc(C(=O)NC2CCN(C)CC2)ccc1Nc1ncc2c(n1)n(C1CCCC1)c(=O)n2CC#N [Example 37, 4-{[7-(Cyanomethyl)-9-cyclopentyl-8-oxo-8,9-dihydro-7H-purin-2-yl]amino}-3-methoxy-N-(1-methylpiperidin-4-yl)-benzamide] | 83.4 |  | 501
COc1cc(C2CCN(C)CC2)ccc1Nc1ncc2c(n1)n(C1CCCC1)c(=O)n2C [Example 28, 9-Cyclopentyl-2-{[2-methoxy-4-(1-methylpiperidin-4-yl)-phenyl]amino}-7-methyl-7,9-dihydro-8H-purin-8-one] | 14.3 |  | 55.4
Cc1cc(S(N)(=O)=O)ccc1Nc1ncc2c(n1)n(C1CCCC1)c(=O)n2C [Example 2, 4-[(9-Cyclopentyl-7-methyl-8-oxo-8,9-dihydro-7H-purin-2-yl)-amino]-3-methylbenzenesulfonamide] | 16.6 |  | 1280
CN1C2CCCC1CC(NC(=O)c1ccc(Nc3ncc4c(n3)n(C3CCCC3)c(=O)n4C)c(F)c1)C2 (stereo not shown) [Example 16, 4-[(9-Cyclopentyl-7-methyl-8-oxo-8,9-dihydro-7H-purin-2-yl)-amino]-3-fluoro-N-(9-methyl-9-azabicyclo[3.3.1]non-3-yl)-benzamide] | 313 |  | 1680
COc1cc(NC2CCN(C)CC2)ccc1Nc1ncc2c(n1)n(C1CCCC1)c(=O)n2C [Example 22, 9-Cyclopentyl-2-({2-methoxy-4-[(1-methylpiperidin-4-yl)-amino]-phenyl}amino)-7-methyl-7,9-dihydro-8H-purin-8-one] | 118 |  | 317
CCn1c(=O)n(C2CCCC2)c2nc(Nc3ccc(S(N)(=O)=O)cc3)ncc21 [Example 34, 4-[(9-Cyclopentyl-7-ethyl-8-oxo-8,9-dihydro-7H-purin-2-yl)-amino]benzenesulfonamide] | 96.3 |  | 1040
CN1CCN(c2ccc(Nc3ncc4c(n3)n(C3CCCC3)c(=O)n4C)c(Cl)c2)CC1 [Example 18, 2-{[2-Chloro-4-(4-methylpiperazin-1-yl)phenyl]amino}-9-cyclopentyl-7-methyl-7,9-dihydro-8H-purin-8-one] | 14.8 |  | 249
COc1cc(N2CCN(C)CC2)ccc1Nc1ncc2c(n1)n(C1CCCC1)c(=O)n2C [Example 4, 9-Cyclopentyl-2-{[2-methoxy-4-(4-methylpiperazin-1-yl)-phenyl]amino}-7-methyl-7,9-dihydro-8H-purin-8-one] | 22.9 |  | 213
CN1CCC(NC(=O)c2ccc(Nc3ncc4c(n3)n(C3CCCC3)c(=O)n4C)c(Cl)c2)CC1 [Example 15, 3-Chloro-4-[(9-cyclopentyl-7-methyl-8-oxo-8,9-dihydro-7H-purin-2-yl)amino]-N-(1-methylpiperidin-4-yl)benzamide] | 235 |  | 3230
CCN1CCC(NC(=O)c2cc(F)c(Nc3ncc4c(n3)n(C3CCCC3)c(=O)n4C)cc2F)CC1 [Example 17, 4-[(9-Cyclopentyl-7-methyl-8-oxo-8,9-dihydro-7H-purin-2-yl)-amino]-N-(1-ethylpiperidin-4-yl)-2,5-difluorobenzamide] | 2010 |  | 9240
